US11352330B2, “Phenoxymethyl derivatives” (Hoffmann-La Roche Inc., priority 2015, dated 2022)

Molecular target: human ATX (Homo sapiens (Human), UniProt Q13822)
Test: Human ATX enzyme inhibition assay (fluorescence quenching, MR121 substrate)
Type: biochemical
Conditions: human His-tagged ATX 30 nM, MR121 substrate 1 μM, 30° C.
How it was run: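 Human His-tagged ATX (30 nM final) preincubated 15 min at 30 °C with serially diluted compounds in Tris buffer pH 8.0 with Ca2+, Mg2+ and 0.01% Triton X-100. MR121/tryptophan-labelled substrate analogue (1 μM final) then added for 15 min at 30 °C; cleavage read by fluorescence dequenching.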

Structure (SMILES)	IC50
Cn1c(COc2cc(Cl)c(C#N)cc2-c2cccc(F)c2F)n[nH]c1=O [Example B91]	4 nM
Cc1cc(OCc2n[nH]c(=O)n2C)c(-c2cccc(C(=O)NCCO)c2)cc1Cl [Example B36]	82 nM
Cc1cc(OCc2n[nH]c(=O)n2C)c(-c2cccc(C(=O)N3CCOCC3)c2)cc1Cl [Example B10]	23 nM
Cn1c(COc2cc(Cl)c(C#N)cc2-c2cc(OC(F)(F)F)ccc2F)n[nH]c1=O [Example B97, 2-chloro-5-[2-fluoro-5-(trifluoromethoxy)phenyl]-4-[(4-methyl-5-oxo-1H-1,2,4-triazol-3-yl)methoxy]benzonitrile]	8 nM
Cn1cncc1-c1ccc(OCc2n[nH]c(=O)n2C)c(C(C)(C)C)c1 [Example A9]	2610 nM
CC(C)c1cc(C#N)ccc1OCc1n[nH]c(=O)n1C [Example A11]	15 nM
Cc1cc(OCc2n[nH]c(=O)n2C)c(-c2cc(Cl)cc(C(N)=O)c2)cc1Cl [Example B14]	79 nM
Cn1c(COc2cc(Cl)c(C#N)cc2-c2cc(C(=O)N3CCOCC3)ccc2F)n[nH]c1=O [Example B61]	10 nM
Cc1cc(OCc2n[nH]c(=O)n2C)c(-c2cccnc2Cl)cc1Cl [Example B18]	52 nM
Cc1cc(OCc2n[nH]c(=O)n2C)c(-c2cc(CNC(=O)C3CC3)ccc2F)cc1Cl [Example B79]	10 nM
Cn1c(COc2cc(C#N)c(Cl)cc2C2CC2)n[nH]c1=O [Example A22]	173 nM
COC(=O)CCNC(=O)c1cccc(-c2cc(Cl)c(C)cc2OCc2n[nH]c(=O)n2C)c1 [Example B44, Methyl 3-[[3-[5-chloro-4-methyl-2-[(4-methyl-5-oxo-1H-1,2,4-triazol-3-yl)methoxy]phenyl]benzoyl]amino]propanoate]	13 nM
Cc1cc(OCc2n[nH]c(=O)n2C)c(-c2cccc(C(N)=O)c2)cc1Cl [Example B11]	166 nM
CC(C)c1cc2c(cc1OCc1n[nH]c(=O)n1C)C(C)(C)CC2 [Example A3]	25 nM
Cc1cc(OCc2n[nH]c(=O)n2C)c(-c2cc(C(=O)O)ccc2C)cc1Cl [Example B50, 3-[5-chloro-4-methyl-2-[(4-methyl-5-oxo-1H-1,2,4-triazol-3-yl)methoxy]phenyl]-4-methylbenzoic acid]	173 nM
Cc1cc(OCc2n[nH]c(=O)n2C)c(-c2cc(C(=O)N3CCCCC3)ccc2F)cc1Cl [Example B69]	9 nM
Cc1cc(OCc2n[nH]c(=O)n2C)c(C2CCCCC2)cc1Cl [Example A20]	8 nM
Cn1c(COc2cc(C#N)c(Cl)cc2C(C)(C)C)n[nH]c1=O [Example A34, 4-tert-Butyl-2-chloro-5-[(4-methyl-5-oxo-1H-1,2,4-triazol-3-yl)methoxy]benzonitrile]	28 nM
Cc1cc(OCc2n[nH]c(=O)n2C)c(-c2cc(C#N)ccc2OC(F)(F)F)cc1Cl [Example B86]	49 nM
Cn1c(COc2cc(Cl)c(C#N)cc2-c2cc(OCC3CCCO3)ccc2F)n[nH]c1=O (centres unmarked) [Example B87]	5 nM
Cc1cc(OCc2n[nH]c(=O)n2C)c(-c2cnccn2)cc1Cl [Example B22, 3-[(4-Chloro-5-methyl-2-pyrazin-2-ylphenoxy)methyl]-4-methyl-1H-1,2,4-triazol-5-one]	227 nM
Cc1cc(OCc2n[nH]c(=O)n2C)c(-c2cc(CN3CC(=O)N(C)CC3=O)ccc2F)cc1Cl [Example B76]	11 nM
Cc1cc(OCc2n[nH]c(=O)n2C)c(-c2cc(C(N)=O)ccc2OC(F)(F)F)cc1Cl [Example B52]	12 nM
Cc1cc(OCc2n[nH]c(=O)n2C)c(-c2cc(C(=O)N3CCN(C)C(=O)C3)ccc2F)cc1Cl [Example B65]	13 nM
Cc1cc(OCc2n[nH]c(=O)n2C)c(-c2ccnn2C)cc1Cl [Example B30]	467 nM
Cc1cc(OCc2n[nH]c(=O)n2C)c(-c2cc(C(=O)N(C)Cc3ccccn3)ccc2F)cc1Cl [Example B71]	9 nM

Next, values leading:

IC50	Structure (SMILES)
2 nM	Cc1cc(C(C)(C)C)c(OCc2n[nH]c3cnccc23)cc1C#N [Example D49]
19 nM	Cc1cc(OCc2n[nH]c3nc(F)ccc23)c(C(C)(C)C)cc1Cl [Example D6, 3-[(2-tert-Butyl-4-chloro-5-methylphenoxy)methyl]-6-fluoro-1H-pyrazolo[3,4-b]pyridine]
8 nM	Cc1cc(OCc2cc(C(=O)N3CCCC3)[nH]n2)c(C(C)(C)C)cc1Cl [Example F4, (3-((2-(tert-Butyl)-4-chloro-5-methylphenoxy)methyl)-1H-pyrazol-5-yl)(pyrrolidin-1-yl)methanone]
69 nM	COc1ncccc1-c1cc(Cl)c(C)cc1OCc1n[nH]c2c1CCN(C(C)=O)C2 [Example E8, 1-(3-((4-Chloro-2-(2-methoxypyridin-3-yl)-5-methylphenoxy)methyl)-4,5-dihydro-1H-pyrazolo[3,4-c]pyridin-6(7H)-yl)ethanone]
12 nM	Cc1cc(OCc2n[nH]c3nc(NCCO)ccc23)c(C(C)(C)C)cc1Cl [Example D7, 2-[[3-[(2-tert-Buty-4-chloro-&-methylphenoxy)methyl]-1H-pyrazolo[3,4-b]pyridin-6-yl]amino]ethanol]
3 nM	N#Cc1cc(-c2cc(OC(F)(F)F)ccc2F)c(OCc2n[nH]c3ncccc23)cc1Cl [Example D55]
7 nM	Cc1cc(OCc2ccc(=O)[nH]n2)c(C2CCCCC2)cc1Cl [Example C6, 3-[(4-chloro-2-cyclohexyl-5-methylphenoxy)methyl]-1H-pyridazin-6-one]
245000 nM	CC(C)(C)c1cc(S(C)(=O)=O)ccc1OCc1n[nH]c2ccccc12 [Example D1]
22 nM	Cc1cc(OCc2ccc(=O)[nH]n2)c(C2CC2)cc1Cl [Example C2, 3-[(4-Chloro-2-cyclopropyl-5-methylphenoxy)methyl]-1H-pyridazin-6-one]
9 nM	Cc1cc(OCc2n[nH]c3cnccc23)c(-c2cc(C(=O)N3CCN(C)C(=O)C3)ccc2F)cc1Cl [Example D44, 4-[3-[5-Chloro-4-methyl-2-(1H-pyrazolo[3,4-c]pyridin-3-ylmethoxy)phenyl]-4-fluorobenzoyl]-1-methylpiperazin-2-one]
2 nM	CC(C)(C)c1cc(Cl)c(C#N)cc1OCc1n[nH]c2ncccc12 [Example D52]
32 nM	COc1ncccc1-c1cc(Cl)c(C)cc1OCc1ccc(=O)[nH]n1 [Example C10]
9 nM	Cc1cc(OCc2n[nH]c3ncccc23)c(C(C)(C)C)cc1C#N [Example D4]
1 nM	CC(C)(C)c1cc(Cl)c(F)cc1OCc1n[nH]c2nc(F)ccc12 [Example D12]
746 nM	Cc1cc(OCc2n[nH]c3c2CN(C(=O)OC(C)(C)C)CC3)c(C(C)(C)C)cc1Cl [Example E1, tert-Butyl 3-((2-tert-butyl-4-chloro-5-methylphenoxy)methyl)-6,7-dihydro-1H-pyrazolo[4,3-c]pyridine-5(4H)-carboxylate]
